Measured values as given in patent US5618665A, “Enzymatic fluorometric assay for adenylate cyclase” (Regents of the University of Minnesota, priority 1994, dated 1997).

What was measured:
adenylate cyclase [1] = assay: Adenylate cyclase activity of rabbit cardiac membranes by enzymatic fluorometric assay (ATP-ADP cycling), radioimmunoassay and Salomon's method; assay type: biochemical; conditions: isoproterenol 10^-7 and 10^-6 M; NaF 10^-2 M; GppNHp 10^-4 M; carbachol 10^-6 M; adenosine 10^-3 M; three methods
Protocol: Adenylate cyclase activities of six different rabbit cardiac membranes under basal and drug treated conditions were assessed using the fluorometric method of the present invention, radioimmunoassay and original [alpha-^32 P] ATP method developed by Salomon. The first part of the non-radioactive fluorescent technique for measuring adenylate cyclase activity is similar to the method described in Example 2 except that 3-isobutyl-1-methylxanthine (IBMX), rather than theophylline, was used to inhibit phosphodiesterase activity. Furthermore, a series of ATP-ADP enzyme-cycling reactions was used to amplify the cAMP signal, rather then the AMP stimulation of glycogen phosphorylase a utilized in previous examples. Use of the ATP-ADP enzymatic cycling amplification step can lengthen the assay duration, depending upon the desired assay sensitivity.
A volume of 1.0 μl of either H2 O, isoproterenol, NaF, guanylyl-5'-imidodiphosphate (GppNHp), carbachol, and adenosine was added to each of six reaction tubes on ice. Next, 25 μl of cyclase mix (100 mM Tris-acetate, pH 7.4; 4.2 mM KCl; 10 mM MgCl2; 20 mM phosphoenolpyruvate; 2 mM ATP; 20 μM GTP; 2 mM dithiothreitol; 0.04% bovine serum albumin; 0.2 mM 3-isobutyl-1-methylxanthine (IBMX); 100 μg/ml pyruvate kinase) was added to each reaction tube. The stored membrane was diluted with SET buffer in a concentration of 1.5 mg of protein/ml. Finally, 25 μl of membrane suspension, which contained 37.5 μg of protein, was added to each tube, and the reaction was initiated by placing the tubes in a water bath maintained at 37° C. After 30 minutes, the reaction was terminated by heating at 90° C. for 5 minutes. […] Then, 25 μl of cyclase mix and 25 μl of boiled membrane preparation were added to each tube. After 30 minutes, the reaction was terminated by heating at 90° C. for 5 minutes.
A volume of 5 μl of reaction of product from Part A was transferred to Pyrex® tubes. For external cAMP standard, a same volume of known amount of cAMP was also added to assay tubes. Newly synthesized cAMP was measured using the following enzymatic fluorometric assay.
1. A volume of 25 μl of "cleaning" reaction mix (100 mM Tris HCl, pH 8.0; 2 mM MgCl2; 2 units/ml apyrase; 2.5 units/ml 5'-nucleotidase; 50 μg/ml adenosine deaminase; 20 units/ml alkaline phosphatase) was added to each assay tube. The mixture was incubated at 37° C. for 30 minutes. Enzymes were then destroyed by heating for 10 minutes at 90° C.
2. A volume of 25 μl of a phosphodiesterase-containing reaction mix (100 mM Tris-HCl pH 8.0; 2 mM MgCl2; 0.01% bovine serum albumin; 60 μg/m; phosphodiesterase) was added to each assay tube from Step 1. After 60 minutes at 37° C., the assay tubes were heated at 90° C. for 5 minutes.
3. A volume of 25 μl of myokinase reaction mix (100 mM Tris-HCl, pH 8.0; 2 mM MgCl2; 225 mM KCl; 200 nM ATP; 8 mM phosphoenolpyruvate; 2 mM dithiothreitol; 0.01% bovine serum albumin; 24 μg/ml myokinase; 50 μg/ml pyruvate kinase) was added to the assay tubes from Step 2. The reactions were incubated at 37° C. for 2 hours.
4. […]
5. […] After 15 minutes at room temperature, the final concentration of NADPH was measured using a fluorometer (Optical Technology Devices, Inc., New York). The fluorometer was set such that a reading of 1 fluorometric unit was equivalent to 100 pmol of NADPH in 900 μl of buffer (50 mM Tris-HCl, pH 8.0). […]

adenylate cyclase [2] = assay: Fluorometric (non-radioactive) adenylate cyclase assay, rabbit ventricular membranes; assay type: biochemical, rabbit (New Zealand white); conditions: Iso 10^-6 M; GppNHp 10^-4 M; NaF 10^-2 M; n = 5
Protocol: (§1) Ventricular membrane preparations were prepared from five male New Zealand white rabbits (weight 2.4 kg; W.O.R.K., Philomith, Oreg.) sacrificed by cervical concussion and immediate incision of the heart as previously described. Briefly, hearts were placed in ice-cold SET buffer (0.25M sucrose, 0.1 mM EDTA, 5.0 mM Tris HCl, pH 7.4). Portions (1-2 g) from the ventricular apex were minced and then homogenized in ice-cold SET buffer (1/10, w/v). The homogenate was filtered through a Nitex filter (three layers) (Tetko, Los Angeles, Calif.) and then centrifuged for 20 min. at 1000×g. The pellet was resuspended and centrifuged three more times. The final pellet was resuspended in SET buffer (1.5 mg protein/ml) and stored at -70° C. until enzyme activity was measured.
A volume of 1.0 μl of either H2 O, NaF, guanylyl -5'-imidodiphosphate (GppNHp), isoproterenol, or isoproterenol+GppNHp was added to each of five reaction tubes and maintained at 0° C. Next, 25 μl of reaction mixture B (tris Acetate 100 mM, pH 7.4; KCl 20 mM; MgCl2 10.0 mM; phosphoenolpyruvate 20 mM; ATP 2.0 mM; GTP 0.02 mM; dithiothreitol 2.0 mM; bovine serum albumin 0.04%; theophylline 0.2 mM; pyruvate kinase 1.0 mg/ml) were added to each reaction tube. Finally, 25 μl of membrane suspension (40 to 45 μg protein) were added to each tube and the reaction was initiated by placing the tubes in a water bath at 37° C. After 30 minutes at 37° C., the reaction was stopped by the addition of 50 μl of 50 mM NaOH. The reaction mixture was heated for 5 minutes at 95° C.
1. A volume of 20-40 μl of reaction product from Part A was added to 100 μl of cleaning reaction mix (Tris-HCl 50 mM, pH 8.0; MgCl2 5 mM; CaCl2, 2 mM; 5'-nucleotidase 0.025 units/ml; apyrase 0.02 units/ml; adenosine deaminase 0.1 mg/ml). After 30 minutes at 37° C., the reaction was terminated by heating it at 95° C. for 5 minutes.
2. […] After 60 minutes at 37° C., 600 μl of 2-amino-2-methyl-1-propanol (AMP2) 50 mM, pH 9.9 was added to the reaction mix and the final concentration of NADPH was measured fluorometrically.
Although the basal activity is nearly 3 times higher in the nonradioactive method, the "fold" stimulation is similar for both receptor-mediated agonists (isoproterenol±GppNHp) as well by NaF, which directly stimulates adenylate cyclase.
The non-radioactive assay of Example 2 is at least 5 times more sensitive than the modified Salomon radioactive assay of Example 1. In Table 3, 5 μl of membrane preparation were used to measure adenylate cyclase activity in the non-radioactivity assay compared to 25 μl with the radioactive preparations. In a separate experiment, the volume of membrane suspension was reduced from 25 μl to 5 μl. By proportionally reducing the assay volume size, no difference in basal (58.4±3.9), isoproterenol (10^-6 M) (128±7.6) or NaF (10^-2 M) (331.9±42.8) stimulated activity was observed when results were compared to larger assay volumes present. EXAMPLE 5.

adenylate cyclase [3] = assay: Radioactive adenylate cyclase assay (modified Salomon, alpha-32P-ATP), rabbit ventricular membranes; assay type: biochemical, rabbit (New Zealand white); conditions: Iso 10^-6 M; GppNHp 10^-4 M; NaF 10^-2 M; n = 5
Protocol: as §1
A volume of 1.0 μl of either H2 O, NaF, guanylyl-5'-imidodiphosphate (GppNHp), isoproterenol, or isoproterenol+GppNHp were added to each of five reaction tubes and maintained at 0° C. […] Finally 25 μl of membrane suspension ([…]) were added to each tube and the reaction was initiated by placing the tubes in a water bath at 37° C. After 30 minutes, the reaction was terminated by the addition of 300 μl of a stopping solution which contained 0.34 HCl and ^3 H-cAMP, 10,000-20,000 cpm.
To generate the graph depicted in FIG. 2, 250 μl portions of reaction mixture A and membrane were used and 50 μl samples were removed from the 37° C. bath every 10 minutes, and stopped with 300 μl stopping solution. The assay tubes were heated at 95° C. for 5 minutes. ^32 P-cAMP was isolated using Dowex-alumina chromatography. Recovery, as assessed by ^3 H-cAMP, was 80-95%. All assays were conducted in triplicate. The time course of adenylate cyclase activity (n=5 different rabbit ventricular membrane preparations) is depicted in FIG. 1. Basal AC and agonist stimulated (0.1 mM GppNHp, 0.1 mM) AC are compared. The activity shown is (isoproterenol+GppNHp-stimulated AC activity) minus (GppNHp-stimulated activity). […]

adenylate cyclase [4] = assay: Effect of theophylline on basal and isoproterenol-stimulated adenylate cyclase activity; assay type: biochemical; conditions: for Isoproterenol Stimulated adenylate cyclase activity / Fold Increase, isoproterenol stimulated: isoproterenol 10^-6 M; for Isoproterenol Stimulated adenylate cyclase activity / Basal (no isoproterenol) adenylate cyclase activity: n = 5; for Fold Increase, isoproterenol stimulated / Fold Increase, basal (no isoproterenol): vs control
Source text: To investigate the effects of theophylline on basal adenylate cyclase activity, increasing concentrations of theophylline were studied (Table 2).

glycogen phosphorylase a = assay: Removal of AMP by the cleaning reactions (glycogen phosphorylase a activity, NADPH fluorescence); assay type: biochemical; conditions: 25° C.
Protocol: AMP was incubated for 60 min at 37° C. with 50 μl of either buffer (100 mM Tris-HCl, pH 8.0) or a cleaning reaction mixture containing 100 mM Tris-HCl, pH 8.0; 5 mM MgCl2. 2 mM CaCl2, 0.02 units/ml apyrase; 0.025 units/ml 5'-nucleotidase and 0.1 mg/ml adenosine deaminase.

For C[N+](C)(C)CCOC(N)=O [carbachol], the “effect on cAMP production” value (adenylate cyclase [1]) was “inhibited”.
With Nc1nc2c(ncn2[C@@H]2O[C@H](COP(=O)(O)OP(=O)(O)NP(=O)(O)O)[C@@H](O)[C@H]2O)c(=O)[nH]1 [GppNHp, guanylyl-5'-imidodiphosphate] the “Agonist-stimulated adenylate cyclase activity, fluorescent assay” value (adenylate cyclase [2]) was 185.3 ± 13.7 pmoles of cAMP/mg/min, the “effect on cAMP production” value (adenylate cyclase [1]) was “increased production” and the “Agonist-stimulated adenylate cyclase activity, radioactive assay” value (adenylate cyclase [3]) was 64.9 ± 3.3 pmoles of cAMP/mg/min.
With Cn1c(=O)c2[nH]cnc2n(C)c1=O [theophylline] the “Isoproterenol Stimulated adenylate cyclase activity” value (adenylate cyclase [4]; theophylline 10 μM) was 85.58 ± 5.56 pmol/mg/min, the “Fold Increase, isoproterenol stimulated” value (adenylate cyclase [4]; theophylline 10 μM) was 1.65 fold and the “Basal (no isoproterenol) adenylate cyclase activity” value (adenylate cyclase [4]; theophylline 10 μM) was 44.72 ± 4.61 pmol/mg/min. The “Fold Increase, basal (no isoproterenol)” value (adenylate cyclase [4]; theophylline 10 μM) was 1.46 fold, the “Isoproterenol Stimulated adenylate cyclase activity” value (adenylate cyclase [4]; theophylline 50 μM) was 93.02 ± 3.55 pmol/mg/min and the “Fold Increase, isoproterenol stimulated” value (adenylate cyclase [4]; theophylline 50 μM) was 1.80 fold. For the same molecule, the “Basal (no isoproterenol) adenylate cyclase activity” value (adenylate cyclase [4]; theophylline 50 μM) was 44.63 ± 5.93 pmol/mg/min, the “Fold Increase, basal (no isoproterenol)” value (adenylate cyclase [4]; theophylline 50 μM) was 1.46 fold and the “Isoproterenol Stimulated adenylate cyclase activity” value (adenylate cyclase [4]; theophylline 100 μM) was 104.21 ± 3.50 pmol/mg/min. The “Fold Increase, isoproterenol stimulated” value (adenylate cyclase [4]; theophylline 100 μM) was 2.01 fold, the “Basal (no isoproterenol) adenylate cyclase activity” value (adenylate cyclase [4]; theophylline 100 μM) was 59.94 ± 3.63 pmol/mg/min and the “Fold Increase, basal (no isoproterenol)” value (adenylate cyclase [4]; theophylline 100 μM) was 1.91 fold. For the same molecule, the “Isoproterenol Stimulated adenylate cyclase activity” value (adenylate cyclase [4]; theophylline 500 μM) was 102.67 ± 2.86 pmol/mg/min, the “Fold Increase, isoproterenol stimulated” value (adenylate cyclase [4]; theophylline 500 μM) was 1.98 fold and the “Basal (no isoproterenol) adenylate cyclase activity” value (adenylate cyclase [4]; theophylline 500 μM) was 53.82 ± 4.37 pmol/mg/min. The “Fold Increase, basal (no isoproterenol)” value (adenylate cyclase [4]; theophylline 500 μM) was 1.75 fold, the “basal activity is increased” value (adenylate cyclase [4]; theophylline 100-500 μM) was “approximately 100%” and the “increase in basal activity” value (adenylate cyclase [4]; theophylline > 100 μM) was “no significant increase in basal activity was observed”.
With Nc1ncnc2c1ncn2[C@@H]1O[C@H](CO)[C@@H](O)[C@H]1O [adenosine] the “effect on cAMP production” value (adenylate cyclase [1]) was “inhibited”.
“adenosine 2'- and 3'-monophosphate [AMP]” was tested, and the “glycogen phosphorylase a activity” value (glycogen phosphorylase a; in the presence of the cleaning reaction mixture) was “remains similar to the control buffer values” and the “glycogen phosphorylase a activity” value (glycogen phosphorylase a; without the cleaning step) was “markedly stimulated”.
